Patent US20260297085A1, “1 H-PYRROLO[2,3-B]PYRIDIN-4-YL]-2-OXOPYRROLIDINE-3-CARBONITRILE DERIVATIVES AS TYROSINE KINASE 2 (TYK2) INHIBITORS FOR THE TREATMENT OF INFLAMMATORY DISEASES” (BIOGEN MA INC., priority 2023, published 2026)
Where a name gives a salt, the structure may show the parent alone.

How the values were obtained:
[1] = target: T1, human JAK1 kinase domain (JH1) (Homo sapiens, UniProt P23458); assay: JH1 biochemical assay for JAK1 (ADP-Glo kinase assay, recombinant JH1 catalytic domain, JAK3-342 peptide, 35 μM ATP)
T1 construct: recombinantly generated catalytic kinase (also known as JH1) domain of human JAK1, JAK2, JAK3 and TYK2
T1 sequence (P23458 875-1153 limits assumed): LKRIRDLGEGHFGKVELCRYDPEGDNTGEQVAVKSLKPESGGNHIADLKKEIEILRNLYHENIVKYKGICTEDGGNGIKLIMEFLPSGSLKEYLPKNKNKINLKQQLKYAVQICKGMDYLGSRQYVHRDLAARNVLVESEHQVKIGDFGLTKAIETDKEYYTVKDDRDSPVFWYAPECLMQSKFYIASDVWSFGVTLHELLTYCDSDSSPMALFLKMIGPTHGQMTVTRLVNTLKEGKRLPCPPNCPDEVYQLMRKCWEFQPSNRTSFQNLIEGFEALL
Procedure: (§1) Compounds of the disclosure were assessed for their ability to inhibit TYK2, JAK1, JAK2, and JAK3 activity. The inhibitory properties of the compounds of the disclosure described herein can be evidenced by testing in any one of the following protocols.
(§2) The kinase activity of recombinantly generated catalytic kinase (also known as JH1) domain of human JAK1, JAK2, JAK3 and TYK2 were evaluated in a plate-based assay using the ADP-Glo™ Kinase Assay platform. Specifically, 4 nM of recombinant JAK1 kinase domain is used to phosphorylate 50 μM of a JAK3-342 (sequence ALVDGYFRLTT) peptide in the presence of 35 μM ATP. Catalytic activities of recombinant JAK2, JAK3 and TYK2 kinase domain (0.2, 0.3 and 2 nM, respectively) are evaluated by the phosphorylation status of the JAK3-974 (50 μM; sequence LPLDKDYYVVR) peptide with the addition of ATP (15, 4 and 10 μM, respectively). The reactions proceed for 100 minutes and the catalytic activity is quantified by first depleting the unused ATP, converting the hydrolyzed ADP into ATP to generate luminescence in a luciferase reaction; which is the basis of the ADP-Glo platform. Compounds are tested at either 10 μM or 1 μM top concentration, 11 points of 3-fold dilution. The data is normalized and the percent activity versus log concentration of compound is fitted with a 4-parameter logistic model to generate a curve and an IC50 value.

[2] = target: T2, human JAK3 kinase domain (JH1) (Homo sapiens, UniProt P52333); assay: JH1 biochemical assay for JAK3 (ADP-Glo kinase assay, recombinant JH1 catalytic domain, JAK3-974 peptide, 4 μM ATP)
T2 construct: recombinantly generated catalytic kinase (also known as JH1) domain of human JAK1, JAK2, JAK3 and TYK2
T2 sequence (P52333 822-1111 limits assumed): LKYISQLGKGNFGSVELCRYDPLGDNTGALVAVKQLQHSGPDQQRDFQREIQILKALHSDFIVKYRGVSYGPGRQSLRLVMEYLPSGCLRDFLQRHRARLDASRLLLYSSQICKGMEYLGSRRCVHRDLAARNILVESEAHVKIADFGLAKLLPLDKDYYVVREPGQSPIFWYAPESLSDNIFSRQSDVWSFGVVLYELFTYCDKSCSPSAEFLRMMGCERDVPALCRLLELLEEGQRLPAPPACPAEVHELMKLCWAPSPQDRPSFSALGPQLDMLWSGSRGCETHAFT
Procedure: as §1, §2

[3] = target: T3, human JAK2 kinase domain (JH1) (Homo sapiens, UniProt O60674); assay: JH1 biochemical assay for JAK2 (ADP-Glo kinase assay, recombinant JH1 catalytic domain, JAK3-974 peptide, 15 μM ATP)
T3 construct: recombinantly generated catalytic kinase (also known as JH1) domain of human JAK1, JAK2, JAK3 and TYK2
T3 sequence (O60674 849-1124 limits assumed): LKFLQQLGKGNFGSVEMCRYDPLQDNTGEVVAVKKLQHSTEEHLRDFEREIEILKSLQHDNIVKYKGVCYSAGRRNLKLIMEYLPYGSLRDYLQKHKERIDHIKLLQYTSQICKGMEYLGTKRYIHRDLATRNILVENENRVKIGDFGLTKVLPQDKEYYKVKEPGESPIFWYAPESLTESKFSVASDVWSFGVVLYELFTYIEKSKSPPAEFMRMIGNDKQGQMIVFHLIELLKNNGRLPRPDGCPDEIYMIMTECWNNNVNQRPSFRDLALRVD
Procedure: as §1, §2

[4] = target: T4, human TYK2 kinase domain (JH1) (Homo sapiens, UniProt P29597); assay: JH1 biochemical assay for TYK2 (ADP-Glo kinase assay, recombinant JH1 catalytic domain, JAK3-974 peptide, 10 μM ATP)
T4 construct: recombinantly generated catalytic kinase (also known as JH1) domain of human JAK1, JAK2, JAK3 and TYK2
T4 sequence (P29597 897-1176 limits assumed): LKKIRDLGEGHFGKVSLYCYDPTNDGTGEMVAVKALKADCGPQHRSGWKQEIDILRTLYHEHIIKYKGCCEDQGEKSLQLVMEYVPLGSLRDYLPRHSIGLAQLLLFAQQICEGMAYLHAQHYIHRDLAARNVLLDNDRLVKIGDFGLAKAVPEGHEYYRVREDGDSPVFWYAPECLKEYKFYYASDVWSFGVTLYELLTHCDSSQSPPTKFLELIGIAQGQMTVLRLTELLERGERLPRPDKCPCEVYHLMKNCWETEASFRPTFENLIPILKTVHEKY
Procedure: as §1, §2

C[C@@H]1CN(c2nc(-c3cccnc3)cn3ncc(F)c23)C(=O)[C@]1(C#N)C1CC1 [Example 222, (3R,4S)-3-cyclopropyl-1-(3-fluoro-6-(pyridin-3-yl)pyrazolo[1,5-a]pyrazin-4-yl)-4-methyl-2-oxopyrrolidine-3-carbonitrile]
IC50 ([1]; JAK1 JH1, ADP-Glo): 1000 to 5000 nM
IC50 ([2]; JAK3 JH1, ADP-Glo): 100 to 1000 nM
IC50 ([3]; JAK2 JH1, ADP-Glo): 1000 to 5000 nM
IC50 ([4]; TYK2 JH1, ADP-Glo): 50 to 100 nM

C[C@@H]1CN(c2ccnn3cc(-c4cncc(C#N)n4)cc23)C(=O)[C@]1(C#N)C1CC1 [Example 133, 6-(4-((3R,4S)-3-cyano-3-cyclopropyl-4-methyl-2-oxopyrrolidin-1-yl)pyrrolo[1,2-b]pyridazin-6-yl)pyrazine-2-carbonitrile trifluoroacetate]
IC50 ([1]; JH1 kinase domain, ADP-Glo): 1000 to 5000 nM
IC50 ([2]; JH1 kinase domain, ADP-Glo): 1000 to 5000 nM
IC50 ([3]; JH1 kinase domain, ADP-Glo): 1000 to 5000 nM
IC50 ([4]; JH1 kinase domain, ADP-Glo): 20 to 50 nM

C[C@@H]1CN(c2nc(-c3cccnc3F)cn3nccc23)C(=O)[C@]1(C#N)C1CC1 [Example 226, (3R,4S)-3-cyclopropyl-1-(6-(2-fluoropyridin-3-yl)pyrazolo[1,5-a]pyrazin-4-yl)-4-methyl-2-oxopyrrolidine-3-carbonitrile trifluoroacetate]
IC50 ([1]; JAK1 JH1, ADP-Glo): 5000 to 10000 nM
IC50 ([2]; JAK3 JH1, ADP-Glo): > 10000 nM
IC50 ([3]; JAK2 JH1, ADP-Glo): > 10000 nM
IC50 ([4]; TYK2 JH1, ADP-Glo): > 100 nM

C[C@@H]1C[C@](C#N)(C2CC2)C(=O)N1c1ccnn2cc(-c3cnn(C)c3)cc12 [Example 16, (3R,5R)-3-cyclopropyl-5-methyl-1-(6-(1-methyl-1H-pyrazol-4-yl)pyrrolo[1,2-b]pyridazin-4-yl)-2-oxopyrrolidine-3-carbonitrile]
IC50 ([1]; JH1 kinase domain, ADP-Glo): 5000 to 10000 nM
IC50 ([2]; JH1 kinase domain, ADP-Glo): > 10000 nM
IC50 ([3]; JH1 kinase domain, ADP-Glo): 100 to 1000 nM
IC50 ([4]; JH1 kinase domain, ADP-Glo): > 100 nM

COc1cc(-c2cc3c(N4C[C@@H](C)[C@@](C#N)(C5CC5)C4=O)ccnn3c2)c(F)cn1 [Example 94, (3R,4S)-3-cyclopropyl-1-(6-(5-fluoro-2-methoxypyridin-4-yl)pyrrolo[1,2-b]pyridazin-4-yl)-4-methyl-2-oxopyrrolidine-3-carbonitrile]
IC50 ([1]; JH1 kinase domain, ADP-Glo): 1000 to 5000 nM
IC50 ([2]; JH1 kinase domain, ADP-Glo): > 10000 nM
IC50 ([3]; JH1 kinase domain, ADP-Glo): > 10000 nM
IC50 ([4]; JH1 kinase domain, ADP-Glo): 20 to 50 nM

Cc1ncn(-c2cc3c(N4C[C@@H](C)[C@@](C#N)(C5CC5)C4=O)ccnn3c2)n1 [Example 342, (3R,4S)-3-cyclopropyl-4-methyl-1-(6-(3-methyl-1H-1,2,4-triazol-1-yl)pyrrolo[1,2-b]pyridazin-4-yl)-2-oxopyrrolidine-3-carbonitrile]
IC50 ([1]; JAK1 JH1, ADP-Glo): 1000 to 5000 nM
IC50 ([2]; JAK3 JH1, ADP-Glo): 1000 to 5000 nM
IC50 ([3]; JAK2 JH1, ADP-Glo): 1000 to 5000 nM
IC50 ([4]; TYK2 JH1, ADP-Glo): > 100 nM

COc1ccc(-c2cn3nccc3c(N3C[C@@H](C)[C@@](C#N)(C4CC4)C3=O)n2)cn1 [Example 224, (3R,4S)-3-cyclopropyl-1-(6-(6-methoxypyridin-3-yl)pyrazolo[1,5-a]pyrazin-4-yl)-4-methyl-2-oxopyrrolidine-3-carbonitrile]
IC50 ([1]; JAK1 JH1, ADP-Glo): 100 to 1000 nM
IC50 ([2]; JAK3 JH1, ADP-Glo): 1000 to 5000 nM
IC50 ([3]; JAK2 JH1, ADP-Glo): 1000 to 5000 nM
IC50 ([4]; TYK2 JH1, ADP-Glo): 20 to 50 nM

Cn1cc(-c2cc3c(N4CC[C@](C)(C#N)C4=O)ccnn3c2)cn1 (single isomer, unassigned) [Example 39]
IC50 ([1]; JH1 kinase domain, ADP-Glo): > 10000 nM
IC50 ([2]; JH1 kinase domain, ADP-Glo): > 10000 nM
IC50 ([3]; JH1 kinase domain, ADP-Glo): > 10000 nM
IC50 ([4]; JH1 kinase domain, ADP-Glo): > 100 nM

C[C@@H]1CN(c2nccn3nc(-c4cnn(C)c4)cc23)C(=O)[C@]1(C#N)C1CC1 [Example 216, (3R,4S)-3-cyclopropyl-4-methyl-1-(2-(1-methyl-1H-pyrazol-4-yl)pyrazolo[1,5-a]pyrazin-4-yl)-2-oxopyrrolidine-3-carbonitrile]
IC50 ([1]; JH1 kinase domain, ADP-Glo): > 10000 nM
IC50 ([2]; JH1 kinase domain, ADP-Glo): > 10000 nM
IC50 ([3]; JH1 kinase domain, ADP-Glo): > 10000 nM
IC50 ([4]; JH1 kinase domain, ADP-Glo): > 100 nM

C[C@@H]1CN(c2ccnn3cc(-c4cnccc4C(F)(F)F)cc23)C(=O)[C@]1(C#N)C1CC1 [Example 179, (3R,4S)-3-cyclopropyl-4-methyl-2-oxo-1-(6-(4-(trifluoromethyl)pyridin-3-yl)pyrrolo[1,2-b]pyridazin-4-yl)pyrrolidine-3-carbonitrile]
IC50 ([1]; JH1 kinase domain, ADP-Glo): > 10000 nM
IC50 ([2]; JH1 kinase domain, ADP-Glo): > 10000 nM
IC50 ([3]; JH1 kinase domain, ADP-Glo): > 10000 nM
IC50 ([4]; JH1 kinase domain, ADP-Glo): > 100 nM
